From patent US8440724B2, “Inhibiting neurotransmitter reuptake” (Mayo Foundation for Medical Education and Research, priority 2008, dated 2013)
Read-outs that look alike come from different tables or passages of the source.

What was measured:
[1] = biological target: T1, human norepinephrine transporter (hNET) (Homo sapiens, UniProt P23975); experiment: Radioligand binding to cloned hNET, [3H]nisoxetine, HEK-293 cell membranes
T1 construct: expressed in transfected cells; host or cells: HEK-293, stably transfected

[2] = biological target: T2, human dopamine transporter (hDAT) (Homo sapiens, UniProt Q01959); experiment: Radioligand binding to cloned hDAT, [3H]WIN35428, HEK-293 cell membranes; conditions: for Binding at hDAT compared to PRC200-SS: in words
T2 construct: expressed in transfected cells; host or cells: HEK-293, stably transfected

hSERT, hNET, hDAT = experiment: Human transporter binding: rank order and range of potency over the three transporters; conditions: for Potency (rank-order of potency of binding; S = hSERT, N = hNET, D = hDAT): from KD values; for Potency Range (difference between most potent and least potent binding): ratio of KD over hSERT, hNET, hDAT
Text: The program was modified to calculate the Hill coefficient (nH). Data are presented as geometric mean±S.E.M. of at least three independent experiments. One-component models and two-component models were compared using the root mean square error of each fit and the F test.

[3] = system: human serotonin, norepinephrine and dopamine transporters; experiment: Transport into cells expressing human transporters: rank order of potency, comparison with rat; type: cell-based; conditions: for Potency (rank order, transport into cells expressing human transporters): from Ki values, S = 5-HT, N = NE, D = DA; for Species selectivity: blocking transport by human vs rat serotonin and dopamine transporters: human transporters in cells vs rat synaptosomal preparations (Tables 3 and 4)
male C57BL/6J mice = experiment: Tail suspension test (TST) in mice; type: in vivo, mouse; conditions: for Duration of immobility in TST vs saline: 5 mg/kg IP, FIG. 10E
Procedure: When mice are suspended by their tail, there is an initial period of agitation, followed by immobility. This test identifies antidepressant compounds, which decrease the duration of immobility.
Test compounds were prepared by formulating the compounds with a pharmaceutically acceptable carrier such as saline. […] Each mouse was then subjected to the tail-suspension test (TST). Each mouse (n>3) was suspended by its tail 45 cm above the table top with the use of adhesive tape placed 1 cm from the tip of its tail. Behavior was scored every 5 seconds throughout the 6-minute test as either mobile or immobile (FIG. 10A-D) or total duration of immobility during the 6-minute test (FIGS. 10E and 10H). Mice were considered immobile only when hanging passively and completely motionless. Scores for each behavior were expressed as total counts per 6-minute session.

[4] = biological target: human norepinephrine transporter (Homo sapiens, UniProt P23975); experiment: Inhibition of [3H]NE transport into HEK-293 cells expressing the human transporter
[5] = biological target: human dopamine transporter (Homo sapiens, UniProt Q01959); experiment: Inhibition of [3H]DA transport into HEK-293 cells expressing the human transporter
[6] = biological target: human serotonin transporter (Homo sapiens, UniProt P31645); experiment: Inhibition of [3H]5-HT transport into HEK-293 cells expressing the human transporter
[7] = mice, 5 and 10 mg/kg IP, 30 minutes before testing
[8] = Geometric Mean ± SEM, HCl salts, read-out: Equilibrium Dissociation Constant (KD) for Transporter Binding, hNET (N)
[9] = Geometric Mean ± SEM, HCl salts, read-out: Equilibrium Dissociation Constant (KD) for Transporter Binding, hDAT (D)
[10] = when the compound occupies 95% of hSERT binding sites, calculation based on occupancy theory

Sequence of human dopamine transporter (Q01959 whole entry): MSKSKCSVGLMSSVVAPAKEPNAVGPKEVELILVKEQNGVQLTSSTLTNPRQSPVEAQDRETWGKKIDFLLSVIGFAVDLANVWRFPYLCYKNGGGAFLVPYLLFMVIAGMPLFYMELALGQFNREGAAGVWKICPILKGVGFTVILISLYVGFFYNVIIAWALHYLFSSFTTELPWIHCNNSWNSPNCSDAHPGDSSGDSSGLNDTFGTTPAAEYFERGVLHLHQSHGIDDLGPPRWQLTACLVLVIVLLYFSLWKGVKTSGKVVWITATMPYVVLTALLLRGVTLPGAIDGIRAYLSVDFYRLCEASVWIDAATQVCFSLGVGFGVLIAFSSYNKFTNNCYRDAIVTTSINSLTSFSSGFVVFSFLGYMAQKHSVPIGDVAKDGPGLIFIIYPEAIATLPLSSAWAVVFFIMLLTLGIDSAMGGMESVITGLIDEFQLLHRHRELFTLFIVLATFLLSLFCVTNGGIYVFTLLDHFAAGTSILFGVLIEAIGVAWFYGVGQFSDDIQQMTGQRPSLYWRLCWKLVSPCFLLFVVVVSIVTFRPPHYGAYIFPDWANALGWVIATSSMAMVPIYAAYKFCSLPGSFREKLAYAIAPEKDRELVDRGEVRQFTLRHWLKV
T2 sequence (Q01959 whole entry): as above
Sequence of human norepinephrine transporter (P23975 whole entry): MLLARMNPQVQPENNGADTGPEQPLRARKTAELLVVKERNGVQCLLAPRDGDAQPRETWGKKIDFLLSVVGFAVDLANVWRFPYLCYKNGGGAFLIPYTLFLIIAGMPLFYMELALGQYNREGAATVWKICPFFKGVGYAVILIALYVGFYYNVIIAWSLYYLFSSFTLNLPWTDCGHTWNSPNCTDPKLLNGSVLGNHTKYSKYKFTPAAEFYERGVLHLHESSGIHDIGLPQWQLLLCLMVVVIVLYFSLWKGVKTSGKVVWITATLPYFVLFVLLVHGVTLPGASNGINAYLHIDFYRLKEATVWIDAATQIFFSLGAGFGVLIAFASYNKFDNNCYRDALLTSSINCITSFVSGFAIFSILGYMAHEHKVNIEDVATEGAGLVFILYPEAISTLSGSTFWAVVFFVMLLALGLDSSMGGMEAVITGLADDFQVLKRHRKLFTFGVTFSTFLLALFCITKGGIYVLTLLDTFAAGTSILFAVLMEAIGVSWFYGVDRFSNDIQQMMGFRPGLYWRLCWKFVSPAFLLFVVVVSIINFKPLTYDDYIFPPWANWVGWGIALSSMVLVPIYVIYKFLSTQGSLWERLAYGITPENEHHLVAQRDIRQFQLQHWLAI
T1 sequence (P23975 whole entry): as above
Sequence of human serotonin transporter (P31645 whole entry): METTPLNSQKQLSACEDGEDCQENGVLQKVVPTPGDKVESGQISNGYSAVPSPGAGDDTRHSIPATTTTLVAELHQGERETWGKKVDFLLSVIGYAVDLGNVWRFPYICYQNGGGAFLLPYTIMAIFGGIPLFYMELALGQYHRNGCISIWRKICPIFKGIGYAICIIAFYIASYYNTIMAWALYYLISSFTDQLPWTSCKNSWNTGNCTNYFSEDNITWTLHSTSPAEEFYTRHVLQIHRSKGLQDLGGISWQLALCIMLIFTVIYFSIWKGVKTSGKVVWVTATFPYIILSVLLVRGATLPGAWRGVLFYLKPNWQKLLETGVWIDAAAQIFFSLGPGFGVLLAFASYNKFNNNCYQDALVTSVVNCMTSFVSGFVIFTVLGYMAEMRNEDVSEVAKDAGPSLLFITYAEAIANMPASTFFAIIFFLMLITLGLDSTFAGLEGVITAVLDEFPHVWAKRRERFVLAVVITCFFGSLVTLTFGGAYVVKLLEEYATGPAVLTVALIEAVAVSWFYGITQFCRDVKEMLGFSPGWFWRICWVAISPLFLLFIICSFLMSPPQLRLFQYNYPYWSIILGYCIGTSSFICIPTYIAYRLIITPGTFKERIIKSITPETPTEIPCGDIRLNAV

## CNCC(c1ccc2ccccc2c1)C(F)c1ccccc1 (racemic) [MCJ001-F-(±)-RR, (2R,3R/2S,3S)-3-fluoro-N-methyl-2-(naphthalen-2-yl)-3-phenylpropan-1-amine]
[1]
  Kd: 4.5 ± 0.8 nM
[2]
  Kd: 140 ± 10 nM
hSERT, hNET, hDAT
  Potency (rank-order of potency of binding; S = hSERT, N = hNET, D = hDAT): S > N > D
  Potency Range (difference between most potent and least potent binding): 36 fold
[3]
  Potency (rank order, transport into cells expressing human transporters): N > S > D
Male C57BL/6J mice; mice, 5 and 10 mg/kg IP
  Immobility in TST (counts per 6-minute session) vs saline: significantly (P≦0.016) reduced immobility
Male C57BL/6J mice; [7]
  Mobility in TST (counts per 6-minute session) vs saline: significantly (P≦0.016) increased mobility
[4]
  Ki: 2.1 ± 0.5 nM
[5]
  Ki: 33 ± 1 nM
[6]
  Ki: 18 ± 3 nM

## CNC[C@H](c1ccc2ccccc2c1)[C@H](OCCCCCO[C@H](c1ccccc1)[C@H](CNC)c1ccc2ccccc2c1)c1ccccc1 [MCJ001-Dimer5-SS, (2S,2′S,3S,3′S)-3,3′-(pentane-1,5-diylbis(oxy))bis(N-methyl-2-(naphthalen-2-yl)-3-phenylpropan-1-amine)]
[1]; [8]
  Kd: 160 ± 30 nM
[2]; [9]
  Kd: 113 ± 6 nM
hSERT, hNET, hDAT
  Potency (rank-order of potency of binding; S = hSERT, N = hNET, D = hDAT): D > S > N
  Potency Range (difference between most potent and least potent binding): 1.4 fold
[3]
  Potency (rank order, transport into cells expressing human transporters): S > D > N
  Species selectivity: blocking transport by human vs rat serotonin and dopamine transporters: much more potent at blocking transport by the human serotonin and dopamine transporters
Male C57BL/6J mice; mice
  Duration of immobility in TST vs saline: except MCJ002-NH2-SS and MCJ001-Dimer5-SS, significantly reduced the time that the animals were immobile
[4]
  Ki: 720 nM
[5]
  Ki: 52 nM
[6]
  Ki: 14 ± 2 nM

## CNC[C@H](c1ccc2ccccc2c1)[C@@H](F)c1ccccc1 [MCJ001-F-RS, (2S,3R)-3-fluoro-N-methyl-2-(naphthalen-2-yl)-3-phenylpropan-1-amine]
[1]
  Kd: 0.9 ± 0.1 nM
[2]
  Kd: 19 ± 2 nM
  Binding at hDAT compared to PRC200-SS: Enhanced binding to hDAT
hSERT, hNET, hDAT
  Potency (rank-order of potency of binding; S = hSERT, N = hNET, D = hDAT): N > S > D
  Potency Range (difference between most potent and least potent binding): 21 fold
[3]
  Potency (rank order, transport into cells expressing human transporters): S > N > D
Male C57BL/6J mice; mice, 1, 2.5, and 5 mg/kg IP, FIG. 10B
  Immobility in TST (counts per 6-minute session) vs saline: significantly (P<0.005) reduced immobility
Male C57BL/6J mice; mice, 2.5 and 5 mg/kg IP, FIG. 10B
  Mobility in TST (counts per 6-minute session) vs saline: significantly (P<0.005) increased mobility
[4]
  Ki: 4.8 nM
[5]
  Ki: 30 ± 5 nM
[6]
  Ki: 3.5 ± 0.9 nM

## CNC[C@@H](c1ccc2ccccc2c1)[C@H](F)c1ccccc1 [MCJ001-F-SR, (2R,3S)-3-fluoro-N-methyl-2-(naphthalen-2-yl)-3-phenylpropan-1-amine]
[1]
  Kd: 430 ± 70 nM
[1]; in words
  Binding at hNET compared to PRC200-SS: much more weakly at hNET and hSERT
[2]
  Kd: 36 ± 6 nM
  Binding at hDAT compared to PRC200-SS: potently binds to hDAT, in the range of that seen with PRC200-SS
hSERT, hNET, hDAT
  Potency (rank-order of potency of binding; S = hSERT, N = hNET, D = hDAT): D > S > N
  Potency Range (difference between most potent and least potent binding): 12 fold
hSERT, hNET, hDAT; listed as MCJ001-F—SR
  Potency (rank-order of potency of binding; S = hSERT, N = hNET, D = hDAT): D>S>N
Male C57BL/6J mice; mice, 10 mg/kg IP, FIG. 10C
  Immobility in TST (counts per 6-minute session) vs saline: significantly (P<0.033) reduced immobility
  Mobility in TST (counts per 6-minute session) vs saline: significantly (P≦0.033) increased mobility
[6]
  Ki: 150 nM

## CNC[C@H](c1ccc2ccccc2c1)[C@@H](N=[N+]=[N-])c1ccccc1 [MCJ001-N3-RS, (2S,3R)-3-azido-N-methyl-2-(naphthalen-2-yl)-3-phenylpropan-1-amine]
[1]; [8]
  Kd: 64 ± 7 nM
[2]; [9]
  Kd: 190 ± 20 nM
hSERT, hNET, hDAT
  Potency (rank-order of potency of binding; S = hSERT, N = hNET, D = hDAT): N > S > D
  Potency Range (difference between most potent and least potent binding): 3.0 fold
[3]
  Potency (rank order, transport into cells expressing human transporters): N > S > D
[4]
  Ki: 24 ± 4 nM
[5]
  Ki: 64 nM
[6]
  Ki: 48 ± 10 nM

## CNC[C@@H](c1ccc2ccccc2c1)[C@H](N=[N+]=[N-])c1ccccc1 [MCJ001-N3-SR, (2R,3S)-3-azido-N-methyl-2-(naphthalen-2-yl)-3-phenylpropan-1-amine]
[1]; [8]
  Kd: 700 ± 100 nM
[2]; [9]
  Kd: 1440 ± 70 nM
hSERT, hNET, hDAT
  Potency (rank-order of potency of binding; S = hSERT, N = hNET, D = hDAT): S > N > D
  Potency Range (difference between most potent and least potent binding): 3.8 fold
[3]
  Potency (rank order, transport into cells expressing human transporters): S > D > N
  Species selectivity: blocking transport by human vs rat serotonin and dopamine transporters: much more potent at blocking transport by the human serotonin and dopamine transporters
[4]
  Ki: 1400 nM
[5]
  Ki: 77 nM
[6]
  Ki: 46 ± 6 nM

## CNC[C@H](c1ccc2ccccc2c1)[C@H](OC)c1ccccc1 [MCJ001-OMe-SS, (2S,3S)-3-methoxy-N-methyl-2-(naphthalen-2-yl)-3-phenylpropan-1-amine]
[1]; [8]
  Kd: 1.4 ± 0.2 nM
[2]
  Kd: 40.6 ± 0.8 nM
hSERT, hNET, hDAT
  Potency (rank-order of potency of binding; S = hSERT, N = hNET, D = hDAT): N > S > D
  Potency Range (difference between most potent and least potent binding): 29 fold
[3]
  Potency (rank order, transport into cells expressing human transporters): N > S > D
Male C57BL/6J mice; mice, 15 mg/kg orally (gastric gavage), FIG. 10A
  Immobility in TST (counts per 6-minute session) vs saline: significantly (P<0.02) reduced immobility
Male C57BL/6J mice; mice, 5 and 10 mg/kg IP
  Immobility in TST (counts per 6-minute session) vs saline: significantly (P<0.02) reduced immobility
Male C57BL/6J mice; [7]
  Mobility in TST (counts per 6-minute session) vs saline: significantly (P<0.02) increased mobility
[4]
  Ki: 1.2 ± 0.2 nM
[5]
  Ki: 21 ± 3 nM
[6]
  Ki: 12 ± 2 nM

## CN(C)C[C@H](c1ccc2ccccc2c1)[C@H](N)c1ccccc1 [MCJ002-NH2-SS, (2S,3S)-N1,N1-dimethyl-2-(naphthalen-2-yl)-3-phenylpropane-1,3-diamine]
[1]; [8]
  Kd: 12.6 ± 0.9 nM
[1]; [10]
  Occupancy of hNET binding sites: 79%
[2]
  Kd: 4.2 ± 0.2 nM
  Binding at hDAT compared to PRC200-SS: several fold more potent binding at hDAT
[2]; [10]
  Occupancy of hDAT binding sites: 92%
hSERT, hNET, hDAT
  Potency (rank-order of potency of binding; S = hSERT, N = hNET, D = hDAT): S > D > N
  Potency Range (difference between most potent and least potent binding): 5.3 fold
Male C57BL/6J mice; mice
  Duration of immobility in TST vs saline: except MCJ002-NH2-SS and MCJ001-Dimer5-SS, significantly reduced the time that the animals were immobile
